These results are taken from US20250177302A1, “LIPOSOME COMPOSITION AND LIPOSOME-CONTAINING PHARMACEUTICAL COMPOSITION” (Eisai R&D Management Co., Ltd., priority 2022, published 2025).

Data set [1] has as its system HUVEC proliferation in the presence of bFGF. Put plainly: HUVEC 2D growth assay, cell proliferation by bFGF stimulation. It counts as cell-based. As to conditions: Homo sapiens, 72 h, bFGF 20 ng/mL, 3 days, CellTiter-Glo. The procedure:
(§1) 1. Measurement of Inhibiting Effect on Cell Proliferation by Vascular Endothelial Growth Factor (VEGF) or Basic Fibroblast Growth Factor (bFGF) Stimulation
(§2) The inhibiting effect of compound (I) on cell proliferation by VEGF or bFGF stimulation was evaluated by the following procedure based on HUVEC 2D growth assay.
(§3) Normal human umbilical vein endothelial cells (HUVEC) were isolated by a previously reported method (Shinseikagaku Jikken Koza, “Cell Culture Technology”, p.197-202). The cells were cultured overnight in a collagen I-coated flask (IWAKI 4143-010), with EGM-2 culture medium (Lonza Inc CC-3162) containing 10% Fetal Bovine Serum (FBS: Sigma 172012) in a 5% CO2 incubator (37° C.). On the following day, the culture supernatant was discarded and the medium was exchanged with EBM-2 culture medium containing 2% FBS, prior to further culturing overnight. On the following day, 2% FBS, and a HUVEC cell suspension prepared to 1.5×10^4 cells/mL with Human Endothelial Serum Free Medium (SFM: Gibco 11111-044) containing penicillin/streptomycin (FujiFilm-Wako Pure Chemical Industries) (hereunder referred to as “2% FBS-SFM”) were each added at 100 μL to each well of a 96-well plate (Corning 3904), and culturing was carried out overnight in a 5% CO2 incubator (37° C.). […]
Background: In ATP-based viability assays light output follows the ATP content of the culture.

The test system of data set [2] is HUVEC proliferation in the presence of VEGF. Put plainly: HUVEC 2D growth assay, cell proliferation by VEGF stimulation. The settings on record: Homo sapiens, 72 h, VEGF 20 ng/mL, 3 days, CellTiter-Glo. It counts as cell-based. The protocol: as §1, §2, §3
A short description of data set [3]: Measurement of blood drug concentration (2), change over time. As to conditions: mice, i.v. 2 mg/kg, 15 minutes, 4 hours and 24 hours after administration. It counts as in vivo. The protocol:
The blood was centrifuged for 10 minutes at about 1200 g, and the plasma was collected. The drug concentration of the harvested plasma was assayed using LC-MS/MS.
The liposome compositions of Examples 2, 5 and 8, and an aqueous solution of methanesulfonic acid salt of compound (I), were administered to mice by the same method as “4. Measurement of blood drug concentration (1)”, collecting blood at 15 minutes, 4 hours and 24 hours after administration, and measuring the change in blood drug concentration.

For `CCNC(=O)Nc1ccc(Oc2ccnc3cc(OC)c(C(N)=O)cc23)cc1Cl` [compound (I), 4-(3-chloro-4-(ethylaminocarbonyl)aminophenoxy)-7-methoxy-6-quinolinecarboxamide], the IC50 (commonly the point on the concentration scale where inhibition reaches its midpoint) in data set [1] was 0.343 µM; in data set [2] it was 0.00175 µM.
As to `CCNC(=O)Nc1ccc(Oc2ccnc3cc(OC)c(C(N)=O)cc23)cc1Cl.CS(=O)(=O)O` [4-(3-Chloro-4-(ethylaminocarbonyl)aminophenoxy)-7-methoxy-6-quinolinecarboxamide methanesulfonate], in data set [3], the “Change in blood drug concentration (FIG. 1), in words” value is recorded as “significantly lower after 24 hours”.
